Assay results published in patent US20120083464A1, “NEUROPROTECTIVE PROPERTIES OF 5'-METHYLTHIOADENOSINE” (priority 2009, published 2012).
Entries after “also recorded” stand apart in the source; their conditions may differ.

Tests used:
[1] = test system: mixed cultures of neurons and astrocytes from the cerebral cortex; assay: Cell toxicity and viability assays (calcein-AM, LDH) in neuron-astrocyte co-cultures; type: cell-based; conditions: MTA 10 μM-1 mM for 24 hours
Description: Primary neuron cultures were obtained from the cortical lobes of E18 Sprague-Dawley rat embryos according to previously described procedures (Cheung et al., 1998, Neuropharmacology 37:1419-1429). The cells were resuspended in B27 Neurobasal medium plus 10% FBS and then seeded in 24-well plates at 1-2×10^5 cells per well onto a monolayer of astrocytes which were previously prepared as described earlier (Vallejo-Illarramendi et al., 2005, Glia 50:276-279). One day later, the medium was replaced by B27-supplemented Neurobasal medium and 10% fetal bovine serum, and maintained at 37° C. and 5% CO2. Cultures were used 8-9 days after plating. Cultured neurons and astrocytes were identified using antibodies to microtubule associated protein-2 and glial fibrillary acidic protein, respectively.
Cell death and cell viability in neuron-astrocyte co-cultures was assayed after 24 h of exposure to MTA (10 μM to 1 mM) using lactate dehydrogenase and calcein-AM assays respectively followed by fluorimetry measurements (Synergy-HT). The results are expressed as percentage of viable cells or LDH release versus controls, as the mean±SEM of at least four independent experiments performed in triplicate. […]

[2] = test system: IL-1β release; assay: LPS neuroinflammation model in cerebellar organotypic cultures: IL1-beta ELISA; type: cell-based, C57/B16 wild type mice; conditions: 192 μM MTA pre-treatment, 15 μg/ml LPS, 3 hrs
Description: Organotypic cultures model of neuroinflammation is based on previous observations in which systemic injections of lipopolysaccharide (LPS) in mice spinal cord induce inflammation, demyelinization and Wallerian degeneration. In mice cerebellar organotypic cultures, LPS induces microglia activation with consequent demyelination and axonal damage. In particular, LPS induces TNF-alpha, IL1-beta release, axonal swelling and end bulbs due to axonal transport block, and a decrease of axonal density. Organotypic cultures represent the best model to represent in vivo mechanisms since they maintain cell-cell interaction and organotypic structure of brain region studied. In this way, this in vitro neuroinflammation model reproduces the microglia activation, demyelinization and axonal damage phenomena observed in MS.
Cerebellar organotypic cultures which were pre-treated for half hour with 192 μM of MTA and 15 μg/ml of LPS have been used to generate neuroinflammation model.
2. Data analysis: Western blot, immunofluorescence and ELISA analysis were performed using conventional techniques.

[3] = test system: Corticospinal tract-YFP mice with chronic EAE; assay: Chronic EAE (model of progressive multiple sclerosis), clinical score and axonal density; type: in vivo, mice (C57B6 background)
Description: Chronic EAE was induced in Corticospinal tract-YFP mice (C57B6 background; see Bareyre et al., Nat Med. 2005 December; 11(12):1355-60) immunized with MOG. The fluorescence labelling of motor axons, allows an accurate quantification of axonal damage during EAE.
1. Align spinal cords of all animals and cut out the following pieces of the spinal cord at the same level in all animals: a) a piece of the cervical spinal cord (about 1 cm in length) starting around at the upper cervical level around C1/2 (this will allow you to determine the number of CST fibers that enter the spinal cord); b) a piece of the lumbar spinal cord (about 1 cm in length) starting around the mid-lumbar level L2/3 (this will allow you to determine the number of fibers that reach the lumbar spinal cord).
5. Mount the tissue and analyze the sections using confocal microscopy—use a high-resolution objectives e.g. a 60× oil objective and take a single image plan covering the entire corticospinal tract.
6. Then simple count the number of dots (=number of fibers)—we usually do this blinded on 3-5 sections and then calculate the average for the CST as the CST—especially in the cervical spinal cord which contains many fibers it might be easier to estimate the total number of cervical CST fibers based on counts of several CST areas with a defined size. […]

[4] = test system: PC12 cells; assay: Neurite differentiation assay in PC12 cells; type: cell-based, rat
Experimental: The PC12 cells were maintained in HAM's medium at 37° C., supplemented with 2.5% of fetal bovine serum, 15% of horse serum and penicillin/streptomycine. The neurite differentiation assays were conducted using 24-well plates treated with collagen in HAM's medium supplemented with 0.5% of fetal bovine serum and penicillin/streptomycine. NGF (100 ng/ml) or MTA at different concentrations (25 μM, 100 μM and 2 mM) were added to the cultures and, after four days, the percentage of cells with neurites longer than twice cell body. In each experiment a minimum of 300 cells were randomly counted.

[5] = test system: MAPK, p38/SAPK and STAT3 pathways; assay: Intracellular phosphorylation in PC12 cells (Luminex); type: cell-based, rat; conditions: PC12 cells after MTA-induced differentiation, four days
Description: The phosphorylation of different intracellular proteins was detected using Luminex technology. After the neurite differentiation assay the PC12 cells were received in lysis buffer and tested using different antibodies: total Akt/PKB, total p38/SAPK, total STAT3, total ERK/MAPK, total P70 S6 Kinase, phosphorolyated Akt/PKB (Ser473), phosphorylated Akt/PKB (Thr 308), phosphorylated p38/SAPK (Thr180/Tyr182), phosphorilyated STAT 3 (Tyr705/Ser 727), phosphorylated ERK/MAPK (Thr185/Tyr187) and phosphorylated P70 S6 Kinase (Thr412).

[6] = test system: RN22 cells; assay: Hydrogen peroxide stress in RN22 cells, MTT cell viability; type: cell-based, rat; conditions: hydrogen peroxide 100 μM, twenty-four hours; MTA 25 μM-3 mM
Experimental: RN22 cells were maintained at 37° C. in DMEM medium supplemented with 10% of fetal bovine serum and penicillin/streptomycine. The assays against stress with copper sulphate were conducted using 24-well plates in DMEM medium without serum. After allowing cell adherence for three days, NGF (100 ng/ml) or MTA was added to different concentrations half an hour before the copper sulphate (150 μM). After twenty-four hours, cell viability was quantified by MTT assay and ROS production was quantified by fluorescence. Assays against stress with hydrogen peroxide were conducted in the same way as the foregoing, using 100 μM hydrogen peroxide as a stress-producing agent.
We determined the quantity of MTT (Sigma) that is reduced to insoluble formazan. After separating the medium, the water-insoluble formazan is solubilised in DMSO and the dissolved material is measured in a spectrophotometer at 570 nm.

CSC[C@H]1O[C@@H](n2cnc3c(N)ncnc32)[C@H](O)[C@@H]1O [MTA, 5′-methylthioadenosine]
astrocyte resistance and viability to MTA [1]: resistant and viable
toxicity (cell viability by calcein fluorescence; cell death by LDH release) ([1]; neurons in co-culture): very low; also recorded: not toxic
IL-1β release (ELISA) [2]: decreases; also recorded: minor quantity
clinical symptoms (EAE clinical score) versus placebo ([3]; MTA 96 μMol/Kg i.p. daily from first day with EAE score of 2 or higher): amelioration of the clinical symptoms
axonal density in lumbar and cervical spinal cord versus placebo ([3]; MTA 96 μMol/Kg i.p. daily, chronic phase): significantly higher axonal density
neurite development at the highest concentration tested ([4]; MTA 5 mM): does not affect neurite development
most optimal MTA concentration for formation of new neurites ([4]; four days): 1 mM
neurite differentiation (formation of new processes) ([4]; four days, concentration dependent): develop new processes
phosphorylation of intracellular proteins: MAPK, p38/SAPK and STAT3 pathways [5]: activation
cell viability (MTT) under hydrogen peroxide stress [6]: capable of maintaining cell viability
